Test results: patent US20100184818A1, “PHOTOSENSITIZERS FOR TARGETED PHOTODYNAMIC THERAPY” (THE GENERAL HOSPITAL CORPORATION, priority 2007, published 2010)

Tests used:
[1] = Singlet oxygen 1270-nm luminescence and quantum yield; format: physicochemical; conditions: for Singlet oxygen luminescence decay curve in organic solvent: CH3OD, 449 nm excitation; for Singlet oxygen decay curve when solvent changed to aqueous buffer: deuterated PBS versus CH3OD
Description: The sample in a 0.25 mm quartz cell was illuminated within the resonant cavity as described above. Singlet oxygen phosphorescence at 1270 nm was monitored by a nitrogen-cooled germanium detector (Model EO-817, North Coast Scientific Corp, Santa Rosa, Calif.). Photoexcitation of the sample studied was induced by a 5 ns 355 nm laser pulse from a Q-switched Nd:YAG laser (Continuum Surelite II, Santa Clara, Calif.) equipped with an optical parametric oscillator (Opotek, Carlsbad, Calif.). Sample in deuterated PBS (pD ˜6.9) or in deuterated methanol (CH3OD) was excited with 449 nm wavelength.

CT26 cells = assay: PDT phototoxicity, MTT assay; format: cell-based, murine; conditions: 2 μM, 80 J/cm2 of light
Protocol: When the cells reached 80% confluence, they were washed with PBS and harvested with 2 mL of 0.25% trypsin-EDTA solution (Sigma). Cells were then centrifuged and counted in trypan blue to ensure viability and plated at density of 5000/well in flat-bottom 96 well plates (Fisher Sci, Pittsburgh, Pa.). Cells were allowed 24 h to attach.
On the following day dilutions of the fullerenes were prepared in complete RPMI medium and added to the cells at […] for 24 h incubation as described. Prior to illumination the fullerene solution was removed and fresh complete medium was replaced and the illumination (150 mW/cm2 white light, 1-80 J/cm2) was performed. The light spot covered 9 wells which were considered as one experimental group. All wells in a group were illuminated at the same time. […]
Following PDT treatment the cells were returned to the incubator overnight and the phototoxicity was measured using a 4 h MTT assay read at 560 nm using a microplate spectrophotometer (Spectra Max 340 PC, Molecular Devices, Sunnyvale, Calif.). […]
Briefly cells were treated with PDT sufficient to kill 80% of cells (5 J/cm2 for J774, 20 J/cm2 for LLC and 80 J/cm2 for CT26). […] Samples were incubated in the dark for 1 h at 37° C. and fluorescence was measured (excitation 400 nm, emission 505 nm). The protein per sample was measured with bicinchoninic acid protein assay.

J774 cells = assay: Intracellular reactive oxygen species, H2DCFDA probe fluorescence microscopy; format: cell-based, murine; conditions: 5 μM BF4 for 24 h, then probe, 5 J/cm2 405 nm laser, compared with probe alone
Protocol: J774 cells were incubated with 5 μM BF4 for 24 h and on the next day 5 μg/ml of 5- (and -6)-chloromethyl-2′-7′-dichlorodihydrofluoresceine diacetate, (CMH2DCFDA, Molecular Probes, Invitrogen) in complete medium was added and incubated for 30 min at 37° C., then cells were washed with PBS and 5 J/cm2 of 405 nm laser light (Nichia Corp, Detroit, Mich.) was delivered. Five to 10 min later a Leica DMR confocal laser fluorescence microscope (Leica Mikroskopie and Systeme GmbH, Wetzler, Germany) with excitation by a 488 nm argon laser and emission with a 530 nm+/−10 nm bandpass filter, and a 63×1.20 water immersion lens was used to image the cells at a resolution of 1024×1024 pixels. Images were acquired using TCS NT software (Version 1.6.551, Leica Lasertechnik, Heidelberg, Germany).

[2] = Octanol-water distribution coefficient; format: physicochemical; conditions: 1-octanol / DI water, absorbance at 330 nm
Protocol: Each compound was dissolved in a minimum amount of DMSO: CI1 (0.9 mg in 200 μl), CI2 (5.3 mg in 200 μl), CI3 (5.4 mg in 200 μl). Ten ml of DI water and 10 ml of 1-octanol were added in each compound and vigorously shaken for 2 min. and the vials of the compounds were settled down overnight. The phases were separated and UV-spectra of each phase were analyzed. Distribution coefficient of each compound was determined using absorbance of aqueous phases and organic phases at 330 nm.

Structure (SMILES)	Singlet oxygen luminescence decay curve in organic solvent [1]	Singlet oxygen decay curve when solvent changed to aqueous buffer [1]	Lethal dose of PDT (share of cells killed) (CT26 cells) [%]	Fluorescence of intracellular ROS probe after illumination (J774 cells)	LogKow [2]	Octanol-water partition constant Kow [2]	Singlet oxygen quantum yield in O2 saturated D2O, higher than that found in air ([1]; O2 saturated D2O versus air saturated)	Singlet oxygen luminescence in aqueous buffer saturated with nitrogen ([1]; nitrogen saturated aqueous buffer)
C[N+]1(C)CC2c3c4c5c6c3c3c(c7ccc8c9ccc%10c%11c%12c%13c%14c(c6c6c3c7c8c(c9c%10%13)c%146)=C3C5C(C=C4)C(C=C%11)C3%12)C2C1.[I-] (stereo not drawn) [CI1]	very similar luminescence decay curves	almost disappeared	80	large increase in fluorescence	2.15	140.80	–	–
C[N+]1(C)Cc2c(c3c4ccc5c6c7c8c9c%10c%11c%12c%13c(c%14c%12c%12c(c2c2c%12c%11c9c(c4c58)c32)C2C[N+](C)(C)CC%142)C=CC2C%13C=%10C7C2C=C6)C1.[I-].[I-] (stereo not drawn) [CI2]	–	–	–	–	0.11	1.28	–	–
C[N+]1(C)Cc2c3c4c5c6c7c8c9c(c%10c8c8c(c%11c%12c(c%13c%14ccc%15c(c2C1)c4c1c%15c%14c2c%13c%11c8c7c2c61)C[N+](C)(C)C%12)C1C[N+](C)(C)CC%101)C=CC3C95.[I-].[I-].[I-] (stereo not drawn) [CI3]	very similar luminescence decay curves	remained almost unchanged	60	–	−0.43	0.37	about 50%	luminescence disappeared
O=C(NC(CO)CO)C1(C(=O)NC(CO)CO)C2c3c4c5c6c3c3c(c7ccc8c9ccc%10c%11ccc%12c%13c(c%14c6c6c3c7c8c3c9c%10c(c%13%11)c%14c36)C5C%12C=C4)C21 (stereo not drawn) [NI1]	–	–	–	–	−1.61	0.025	–	–
O=C(NC(CO)CO)C1(C(=O)NC(CO)CO)c2c1c1c3ccc4c5c6c7c(c8c9c7c7c%10c%11c%12c(ccc%13c2c2c1c1c3c4c6c7c1c%10c2c%12%13)C(C=C8)C9%11)C1C5C1(C(=O)NC(CO)CO)C(=O)NC(CO)CO (stereo not drawn) [NI2]	–	–	–	–	−1.49	0.032	–	–
Cc1cc2nc3c(=O)[nH]c(=O)nc-3n(C[C@H](O)[C@H](O)[C@H](O)CO)c2cc1C [riboflavin, Riboflavin, reference compound]	somewhat larger	remained almost unchanged	–	–	–	–	–	–
